From patent publication US12544395B2, “Combination compositions comprising a beta-lactamase inhibitor and uses thereof” (priority 2018, dated 2026)

What was measured:
Format in all cases: cell-based
[1] = test system: E. coli 1924; test: Broth microdilution MIC (strain enzymes: TEM-12)
[2] = test system: E. coli 2150; test: Broth microdilution MIC (strain enzymes: SHV-3, TEM-1)
[3] = test system: E. coli BAS 1; test: Broth microdilution MIC (strain enzymes: none detected)
[4] = test system: E. coli ESBL 5; test: Broth microdilution MIC (strain enzymes: CTX-M15, TEM-1)
[5] = test system: E. coli SI-LP377; test: microbe, parasite or virus in culture
[6] = test system: E. coli SI-M004; test: Broth microdilution MIC (strain enzymes: SHV-2, GES-12)
[7] = test system: E. coli SI-NO36; test: Broth microdilution MIC (strain enzymes: SHV-11, TEM-1)
[8] = test system: E. coli SI-PBLII; test: Broth microdilution MIC (strain enzymes: CTX-M2, TEM-1)
[9] = test system: E. coli SI-V502; test: Broth microdilution MIC (strain enzymes: TEM-29, CTX-M15)
[10] = test system: K. oxytoca 176877; test: Broth microdilution MIC (strain enzymes: SHV-105)
[11] = test system: K. oxytoca 496 #2; test: Broth microdilution MIC (strain enzymes: SHV-105, TEM-1)

CCC(=O)N[C@H]1Cc2cccc(C(=O)O)c2OB1O [Compound 2, (R)-2-hydroxy-3-propionamido-3,4-dihydro-2H-benzo[e][1,2]oxaborinine-8-carboxylic acid]
MIC of cefalexin (LEX) ([1]; with inhibitor at 1 μg/mL): 0.5 µg/mL
MIC of cefdinir (CDR) ([1]; with inhibitor at 1 μg/mL): 0.5 µg/mL
MIC of cefixime (CFM) ([1]; with inhibitor at 1 μg/mL): 0.5 µg/mL
MIC of ceftibuten (CTB) ([1]; with inhibitor at 1 μg/mL): 0.125 µg/mL
MIC of cefalexin (LEX) ([1]; with inhibitor at 2 μg/mL): 0.25 µg/mL
MIC of cefdinir (CDR) ([1]; with inhibitor at 2 μg/mL): 0.25 µg/mL
MIC of cefixime (CFM) ([1]; with inhibitor at 2 μg/mL): 0.5 µg/mL
MIC of ceftibuten (CTB) ([1]; with inhibitor at 2 μg/mL): 0.25 µg/mL
MIC of cefalexin (LEX) ([1]; with inhibitor at 4 μg/mL): 0.25 µg/mL
MIC of cefdinir (CDR) ([1]; with inhibitor at 4 μg/mL): 0.25 µg/mL
MIC of cefixime (CFM) ([1]; with inhibitor at 4 μg/mL): 0.25 µg/mL
MIC of ceftibuten (CTB) ([1]; with inhibitor at 4 μg/mL): 0.125 µg/mL
MIC of cefalexin (LEX) ([2]; with inhibitor at 1 μg/mL): 1 µg/mL
MIC of cefdinir (CDR) ([2]; with inhibitor at 1 μg/mL): 1 µg/mL
MIC of cefixime (CFM) ([2]; with inhibitor at 1 μg/mL): 0.5 µg/mL
MIC of ceftibuten (CTB) ([2]; with inhibitor at 1 μg/mL): 0.125 µg/mL
MIC of cefalexin (LEX) ([2]; with inhibitor at 2 μg/mL): 0.5 µg/mL
MIC of cefdinir (CDR) ([2]; with inhibitor at 2 μg/mL): 0.5 µg/mL
MIC of cefixime (CFM) ([2]; with inhibitor at 2 μg/mL): 0.5 µg/mL
MIC of ceftibuten (CTB) ([2]; with inhibitor at 2 μg/mL): 0.125 µg/mL
MIC of cefalexin (LEX) ([2]; with inhibitor at 4 μg/mL): 0.5 µg/mL
MIC of cefdinir (CDR) ([2]; with inhibitor at 4 μg/mL): 0.5 µg/mL
MIC of cefixime (CFM) ([2]; with inhibitor at 4 μg/mL): 0.25 µg/mL
MIC of ceftibuten (CTB) ([2]; with inhibitor at 4 μg/mL): 0.06 µg/mL
MIC of cefalexin (LEX) ([3]; with inhibitor at 1 μg/mL): 1 µg/mL
MIC of cefdinir (CDR) ([3]; with inhibitor at 1 μg/mL): 1 µg/mL
MIC of cefixime (CFM) ([3]; with inhibitor at 1 μg/mL): 8 µg/mL
MIC of ceftibuten (CTB) ([3]; with inhibitor at 1 μg/mL): 1 µg/mL
MIC of cefalexin (LEX) ([3]; with inhibitor at 2 μg/mL): 1 µg/mL
MIC of cefdinir (CDR) ([3]; with inhibitor at 2 μg/mL): 1 µg/mL
MIC of cefixime (CFM) ([3]; with inhibitor at 2 μg/mL): 2 µg/mL
MIC of ceftibuten (CTB) ([3]; with inhibitor at 2 μg/mL): 1 µg/mL
MIC of cefalexin (LEX) ([3]; with inhibitor at 4 μg/mL): 2 µg/mL
MIC of cefdinir (CDR) ([3]; with inhibitor at 4 μg/mL): 2 µg/mL
MIC of cefixime (CFM) ([3]; with inhibitor at 4 μg/mL): 1 µg/mL
MIC of ceftibuten (CTB) ([3]; with inhibitor at 4 μg/mL): 0.5 µg/mL
MIC of cefalexin (LEX) ([4]; with inhibitor at 1 μg/mL): 8 µg/mL
MIC of cefdinir (CDR) ([4]; with inhibitor at 1 μg/mL): 8 µg/mL
MIC of cefixime (CFM) ([4]; with inhibitor at 1 μg/mL): 1 µg/mL
MIC of ceftibuten (CTB) ([4]; with inhibitor at 1 μg/mL): 0.25 µg/mL
MIC of cefalexin (LEX) ([4]; with inhibitor at 2 μg/mL): 2 µg/mL
MIC of cefdinir (CDR) ([4]; with inhibitor at 2 μg/mL): 2 µg/mL
MIC of cefixime (CFM) ([4]; with inhibitor at 2 μg/mL): 1 µg/mL
MIC of ceftibuten (CTB) ([4]; with inhibitor at 2 μg/mL): 0.125 µg/mL
MIC of cefalexin (LEX) ([4]; with inhibitor at 4 μg/mL): 2 µg/mL
MIC of cefdinir (CDR) ([4]; with inhibitor at 4 μg/mL): 2 µg/mL
MIC of cefixime (CFM) ([4]; with inhibitor at 4 μg/mL): 0.5 µg/mL
MIC of ceftibuten (CTB) ([4]; with inhibitor at 4 μg/mL): 0.125 µg/mL
MIC of cefalexin (LEX) ([5]; with inhibitor at 1 μg/mL): 4 µg/mL
MIC of cefdinir (CDR) ([5]; with inhibitor at 1 μg/mL): 4 µg/mL
MIC of cefixime (CFM) ([5]; with inhibitor at 1 μg/mL): 0.5 µg/mL
MIC of ceftibuten (CTB) ([5]; with inhibitor at 1 μg/mL): 0.125 µg/mL
MIC of cefalexin (LEX) ([5]; with inhibitor at 2 μg/mL): 1 µg/mL
MIC of cefdinir (CDR) ([5]; with inhibitor at 2 μg/mL): 1 µg/mL
MIC of cefixime (CFM) ([5]; with inhibitor at 2 μg/mL): 0.25 µg/mL
MIC of ceftibuten (CTB) ([5]; with inhibitor at 2 μg/mL): 0.125 µg/mL
MIC of cefalexin (LEX) ([5]; with inhibitor at 4 μg/mL): 1 µg/mL
MIC of cefdinir (CDR) ([5]; with inhibitor at 4 μg/mL): 1 µg/mL
MIC of cefixime (CFM) ([5]; with inhibitor at 4 μg/mL): 0.125 µg/mL
MIC of ceftibuten (CTB) ([5]; with inhibitor at 4 μg/mL): 0.125 µg/mL
MIC of cefalexin (LEX) ([6]; with inhibitor at 1 μg/mL): 0.5 µg/mL
MIC of cefdinir (CDR) ([6]; with inhibitor at 1 μg/mL): 0.5 µg/mL
MIC of cefixime (CFM) ([6]; with inhibitor at 1 μg/mL): 4 µg/mL
MIC of ceftibuten (CTB) ([6]; with inhibitor at 1 μg/mL): 0.25 µg/mL
MIC of cefalexin (LEX) ([6]; with inhibitor at 2 μg/mL): 0.5 µg/mL
MIC of cefdinir (CDR) ([6]; with inhibitor at 2 μg/mL): 0.5 µg/mL
MIC of cefixime (CFM) ([6]; with inhibitor at 2 μg/mL): 4 µg/mL
MIC of ceftibuten (CTB) ([6]; with inhibitor at 2 μg/mL): 0.125 µg/mL
MIC of cefalexin (LEX) ([6]; with inhibitor at 4 μg/mL): 0.5 µg/mL
MIC of cefdinir (CDR) ([6]; with inhibitor at 4 μg/mL): 0.5 µg/mL
MIC of cefixime (CFM) ([6]; with inhibitor at 4 μg/mL): 1 µg/mL
MIC of ceftibuten (CTB) ([6]; with inhibitor at 4 μg/mL): 0.125 µg/mL
MIC of cefalexin (LEX) ([7]; with inhibitor at 1 μg/mL): 0.125 µg/mL
MIC of cefdinir (CDR) ([7]; with inhibitor at 1 μg/mL): 0.125 µg/mL
MIC of cefixime (CFM) ([7]; with inhibitor at 1 μg/mL): 0.5 µg/mL
MIC of ceftibuten (CTB) ([7]; with inhibitor at 1 μg/mL): 0.06 µg/mL
MIC of cefalexin (LEX) ([7]; with inhibitor at 2 μg/mL): 0.125 µg/mL
MIC of cefdinir (CDR) ([7]; with inhibitor at 2 μg/mL): 0.125 µg/mL
MIC of cefixime (CFM) ([7]; with inhibitor at 2 μg/mL): 0.25 µg/mL
MIC of ceftibuten (CTB) ([7]; with inhibitor at 2 μg/mL): 0.125 µg/mL
MIC of cefalexin (LEX) ([7]; with inhibitor at 4 μg/mL): 0.25 µg/mL
MIC of cefdinir (CDR) ([7]; with inhibitor at 4 μg/mL): 0.25 µg/mL
MIC of cefixime (CFM) ([7]; with inhibitor at 4 μg/mL): 0.5 µg/mL
MIC of ceftibuten (CTB) ([7]; with inhibitor at 4 μg/mL): 0.06 µg/mL
MIC of cefalexin (LEX) ([8]; with inhibitor at 1 μg/mL): 0.25 µg/mL
MIC of cefdinir (CDR) ([8]; with inhibitor at 1 μg/mL): 0.25 µg/mL
MIC of cefixime (CFM) ([8]; with inhibitor at 1 μg/mL): 0.25 µg/mL
MIC of ceftibuten (CTB) ([8]; with inhibitor at 1 μg/mL): 0.125 µg/mL
MIC of cefalexin (LEX) ([8]; with inhibitor at 2 μg/mL): 0.25 µg/mL
MIC of cefdinir (CDR) ([8]; with inhibitor at 2 μg/mL): 0.25 µg/mL
MIC of cefixime (CFM) ([8]; with inhibitor at 2 μg/mL): 0.25 µg/mL
MIC of ceftibuten (CTB) ([8]; with inhibitor at 2 μg/mL): 0.125 µg/mL
MIC of cefalexin (LEX) ([8]; with inhibitor at 4 μg/mL): 0.25 µg/mL
MIC of cefdinir (CDR) ([8]; with inhibitor at 4 μg/mL): 0.25 µg/mL
MIC of cefixime (CFM) ([8]; with inhibitor at 4 μg/mL): 0.25 µg/mL
MIC of ceftibuten (CTB) ([8]; with inhibitor at 4 μg/mL): 0.125 µg/mL
MIC of cefalexin (LEX) ([9]; with inhibitor at 1 μg/mL): 1 µg/mL
MIC of cefdinir (CDR) ([9]; with inhibitor at 1 μg/mL): 1 µg/mL
MIC of cefixime (CFM) ([9]; with inhibitor at 1 μg/mL): 0.25 µg/mL
MIC of ceftibuten (CTB) ([9]; with inhibitor at 1 μg/mL): 0.25 µg/mL
MIC of cefalexin (LEX) ([9]; with inhibitor at 2 μg/mL): 0.5 µg/mL
MIC of cefdinir (CDR) ([9]; with inhibitor at 2 μg/mL): 0.5 µg/mL
MIC of cefixime (CFM) ([9]; with inhibitor at 2 μg/mL): 0.5 µg/mL
MIC of ceftibuten (CTB) ([9]; with inhibitor at 2 μg/mL): 0.25 µg/mL
MIC of cefalexin (LEX) ([9]; with inhibitor at 4 μg/mL): 0.5 µg/mL
MIC of cefdinir (CDR) ([9]; with inhibitor at 4 μg/mL): 0.5 µg/mL
MIC of cefixime (CFM) ([9]; with inhibitor at 4 μg/mL): 0.25 µg/mL
MIC of ceftibuten (CTB) ([9]; with inhibitor at 4 μg/mL): 0.125 µg/mL
MIC of cefalexin (LEX) ([10]; with inhibitor at 1 μg/mL): 2 µg/mL
MIC of cefdinir (CDR) ([10]; with inhibitor at 1 μg/mL): 2 µg/mL
MIC of cefixime (CFM) ([10]; with inhibitor at 1 μg/mL): 1 µg/mL
MIC of ceftibuten (CTB) ([10]; with inhibitor at 1 μg/mL): 0.5 µg/mL
MIC of cefalexin (LEX) ([10]; with inhibitor at 2 μg/mL): 2 µg/mL
MIC of cefdinir (CDR) ([10]; with inhibitor at 2 μg/mL): 2 µg/mL
MIC of cefixime (CFM) ([10]; with inhibitor at 2 μg/mL): 0.5 µg/mL
MIC of ceftibuten (CTB) ([10]; with inhibitor at 2 μg/mL): 0.125 µg/mL
MIC of cefalexin (LEX) ([10]; with inhibitor at 4 μg/mL): 1 µg/mL
MIC of cefdinir (CDR) ([10]; with inhibitor at 4 μg/mL): 1 µg/mL
MIC of cefixime (CFM) ([10]; with inhibitor at 4 μg/mL): 0.5 µg/mL
MIC of ceftibuten (CTB) ([10]; with inhibitor at 4 μg/mL): 0.25 µg/mL
MIC of cefalexin (LEX) ([11]; with inhibitor at 1 μg/mL): 0.25 µg/mL
MIC of cefdinir (CDR) ([11]; with inhibitor at 1 μg/mL): 0.25 µg/mL
MIC of cefixime (CFM) ([11]; with inhibitor at 1 μg/mL): 0.25 µg/mL
MIC of ceftibuten (CTB) ([11]; with inhibitor at 1 μg/mL): 0.125 µg/mL
MIC of cefalexin (LEX) ([11]; with inhibitor at 2 μg/mL): 0.25 µg/mL
MIC of cefdinir (CDR) ([11]; with inhibitor at 2 μg/mL): 0.25 µg/mL
MIC of cefixime (CFM) ([11]; with inhibitor at 2 μg/mL): 0.125 µg/mL
MIC of ceftibuten (CTB) ([11]; with inhibitor at 2 μg/mL): 0.125 µg/mL
MIC of cefalexin (LEX) ([11]; with inhibitor at 4 μg/mL): 0.06 µg/mL
MIC of cefdinir (CDR) ([11]; with inhibitor at 4 μg/mL): 0.06 µg/mL
MIC of cefixime (CFM) ([11]; with inhibitor at 4 μg/mL): 0.06 µg/mL
MIC of ceftibuten (CTB) ([11]; with inhibitor at 4 μg/mL): 0.125 µg/mL
